Data taken from patent US20250339443A1, “METHOD FOR TREATING OR PREVENTING CALCIUM RELEASE-ACTIVATED CALCIUM CHANNEL OR DISCOIDIN DOMAIN RECEPTOR 2 RELATED DISORDERS OR CONDITIONS” (LumiSTAR Biotechnology, Inc., priority 2023, published 2025).

Test system: obstruction-induced persistent progression of renal fibrosis
Test: Reversible unilateral ureteral obstruction (RUUO) model
Type: in vivo, mouse
Description: FIG. 6A illustrates a diagram depicting the timeline of operations and drug delivery. The left ureter was surgically ligated (UUO-L) for 7 days, after which it was re-connected to the bladder (RUUO-L). Various compounds, including DMSO (control), WRG-28, and Av, were intraperitoneally injected daily during ureter ligation (UUO-L) period. After following RUUO-L for an additional 13 days, the right ureter was ligated (UUO-R). Subsequently, mice were housed in metabolic cages on the day after surgery (day 21). On day 22, the left kidneys were removed for further analysis to evaluate kidney function. […] FIG. 6C illustrates the measurement of the Sirius red-positive area in each group, conducted by using Image J from 5-10 images. The protein levels of integrin β1, collagen 1a1, DDR2, α-SMA, E-cadherin, SGLT2, NHE1, and β-actin were assessed in mice treated with WRG-28 (FIG. 6D) and Av (FIG. 6F) using Western blot analysis. Relative protein levels were quantified using Image J (FIG. 6E and FIG. 6G). Each bar represents mean±SEM. In all the graphs, *, **, and *** denote p-values of <0.05, 0.01, and 0.001, respectively.
The left ureter was surgically ligated (UUO-L) for 7 days, after which it was re-connected to the bladder (RUUO-L). Various compounds, including DMSO (control), WRG-28, and Av were intraperitoneally injected for 13 days after the release of left ureter ligation (during RUUO-L period). After 13 days of RUUO-L, the right ureter was ligated (UUO-R). Subsequently, the mice were housed in metabolic cages on the following day of surgery (day 21). On day 22, the left kidneys were removed for further analysis. […] FIG. 7C illustrates the measurement of the Sirius red-positive area in each group using Image J from 5-10 images. The protein levels of integrin β1, collagen 1a1, DDR2, […] were assessed in mice treated with WRG-28 (FIG. 7D) and Av (FIG. 7F) using Western blot analysis. The relative protein levels were measured and quantified using Image J (FIG. 7E and FIG. 7G). Each bar represents the mean±SEM. In all the graphs, *, **, and *** denote p-values of <0.05, 0.01, and 0.001, respectively. NS denotes a p-value >0.05, indicating no significant difference between the two groups.
FIG. 8A, FIG. 8B, FIG. 8C, FIG. 8D, FIG. 8E, FIG. 8F, FIG. 8G, and FIG. 8H illustrate how WRG-28 and Av restore epithelial differentiation and reduce collagen deposition and myofibroblast expansion in RUUO-induced persistent progression of renal fibrosis. The frozen tissue blocks were utilized for immunofluorescence staining. […] Laminin alpha 1 and collagen 1a1 were detected using primary antibodies, followed by secondary antibodies conjugated with Alexa-488 (green) and Alexa-594 (red), respectively. Hoechst 33258 (blue) was used for labeling nuclei. FIG. 8A-(ii) illustrates the fluorescent intensity of collagen 1a1 measured using Image J. Analysis was conducted on 5-10 areas from each of the 5 pictures, with each bar representing the mean±SEM. In FIG. 8A-(i), the thickness of laminin alpha 1 was measured using Image J by analyzing 5-10 areas from each of the 5-10 pictures. The median is marked by a solid line, while the quartiles are indicated by dotted lines. […] FIG. 8B-(iii) illustrates the fluorescent intensity of α-SMA, measured using Image J. Quantification was conducted on at least 5 areas from each of the 5 pictures, with each bar representing the mean±SEM. […] Additionally, Hoechst 33258 (blue) was used for labeling nuclei. FIG. 8C-(iv) illustrates the quantification of apical membrane expression of SGLT2 in SGLT2 positive cells for each condition. Analysis was conducted on at least 5 pictures from each condition, with each bar representing the mean±SEM. […] Hoechst 33258 (blue) was used to label nuclei. The expressions of DDR2 (FIG. 8D-(v)) and AQP1 (FIG. 8D-(vi)) were analyzed and quantified based on 5-8 pictures from each condition. Each bar in the figures represents the mean±SEM. […]

[1] = serum, compared to DMSO-treated mice, 7*/15d or 7/15*d
[2] = treated after release of obstruction (7/15*d), Western blot
[3] = treated after the obstruction was released (7/15*d)
[4] = treated during obstruction (7*/15d)
[5] = treated during obstruction (7*/15d), Western blot

CCNS(=O)(=O)c1ccc(COc2ccc3nc4ccc(=O)cc-4oc3c2)cc1 [WRG-28]
expression of DDR2 (immunofluorescence) (RUUO, compared to the DMSO-treated group): reduced | apical membrane expression of SGLT-2 (RUUO, immunofluorescence): reversed | atrophic tubules (RUUO, immunofluorescence): fewer | accumulation of collagen 1a1 (immunofluorescence) (RUUO, vs DMSO treated group): mitigated | expression of α-SMA (immunofluorescence) (RUUO, vs DMSO treated group): markedly reduced | level of BUN [1]: significantly reduced | level of CRE [1]: significantly reduced | kidney histology (H&E) (treated 7 days during ureter obstruction (7*/15d)): preserved the intact tubular structure | kidney histology (H&E) compared to DMSO-treated mice (treated 13 days after release of obstruction (7/15*d)): numerous intact tubular structures, less inflammation and scar tissue | collagen-positive area (Sirius red) (treated after release of obstruction (7/15*d)): reduced | downregulation of epithelial marker proteins, E-cadherin, SGLT2 and NHE1 [2]: only partially reversed | obstruction-induced upregulation of integrin β1, DDR2, collagen 1a1, and α-SMA [2]: alleviated | number of apoptotic cells (TUNEL-positive cells) [3]: significantly reduced | numbers of proliferating tubular cells (Ki67-positive cells) [3]: increased | expansion of the fibrotic area (collagen-positive area, Sirius red) [4]: significantly reduced | numbers of proliferating tubular cells (Ki67-positive) [4]: did not significantly differ | proliferating interstitial cells (Ki67) [4]: more proliferating interstitial cells in DMSO treated mice | expression of epithelial markers (E-cadherin, SGLT2, NHE1) [5]: significant increase | expression of mesenchymal marker proteins (integrin β1, DDR2, collagen 1a1, α-SMA) [5]: significantly reduced | apoptotic (TUNEL-positive) tubular cells (treated during obstruction, obstruction released for 15 days (7*/15d)): only a few | width of the basement membrane (laminin alpha 1 thickness) (treated during the obstruction (7*/15d) or after its release (7/15*d), immunofluorescence): uniform and unchanging width
